These results are taken from patent publication US8859565B2, “Compound for inhibiting type 5 phosphodiesterase and preparation method thereof” (priority 2010, dated 2014).

Assay [1] has as its system rats having hypertension induced by monocrotaline. As to conditions: cited from earlier work.
Assay [2] concerns the target T1, PDE5 (Homo sapiens, UniProt O76074). The assay can be described thus: Inhibiting effect to PDE5 degrading cGMP (cGMP enzyme immunoassay, EIA). Particulars: 3200 fmol cGMP, PDE5 3u, 30° C., 20 min; PROBIT regression. The format is biochemical.
Assay [3] addresses T1, PDE5. The assay can be described thus: Effect to PDE5 on cAMP (cAMP enzyme immunoassay, EIA). Particulars: 1600 fmol cAMP, PDE5 3u, 30° C., 20 min; 10^−4 to 10^−12 mol·L^−1; p>0.05, S curve cannot be fitted. The format is biochemical.
In assay [4] the test system is pulmonary hypertension. As to conditions: animal model experiments; cited from earlier work.

Counter-ions that a name gives are not always drawn.

`COc1ccc(CNc2nnc(N3CCC(O)CC3)c3ccc(C#N)cc23)cc1Cl.Cl` [E-4010]: in assay [1], the Survival rate result is given as “can increase the survival rate”.
For orientation: IC50 means the concentration at which inhibition is half-maximal. Compound `CCCc1nn(C)c2c(=O)[nH]c(-c3cc(S(=O)(=O)N4C[C@@H](C)N(C)[C@@H](C)C4)ccc3OCC)nc12` [ZTH, 5-[2-ethoxyphenyl-5-(3,4,5-trimethylpiperazinyl)-sulfonyl]-1-methyl-3-propyl-1,6-dihydro-7H-pyrazolo[4,3-d]pyrimidine-7-ketone citrate] gave an IC50 in assay [2] of 2.12 nM. Also, the “Effect to PDE5 on cAMP (OD value vs negative control)” value in assay [3] is listed as “no substantial difference in OD value”.
On to `CCCOc1ccccc1-c1nc2nn[nH]c2c(=O)[nH]1` [zaprinast], for which the “Effect on pulmonary hypertension” value in assay [4] is reported as “relatively strong effects to lower pulmonary hypertension”.
